Drawing on ChEMBL document CHEMBL1153218, “Non-peptide entry inhibitors of HIV-1 that target the gp41 coiled coil pocket” (Bioorg Med Chem Lett, 2010), this text covers EC50 and Kd for 13 molecules.

Experiment [1] can be described thus: Inhibition of HIV1 envelope gp41-mediated fusion of CHO cells expressing HIV1 envelope with calcein-AM labeled SupT1 cells by fluorescence assay. Format: cell-based, Human immunodeficiency virus 1.
A short description of experiment [2]: Binding affinity to HIV1 envelope gp41 by NMR study. Also on record: species or system Human immunodeficiency virus 1.

Molecules are shown by their SMILES.

As to `O=C(O)c1cc(C(=O)O)c(C(=O)N(Cc2cccc(OC3CCOCC3)c2)[C@H]2CCCc3ccccc32)cc1C(=O)O`, the EC50 in experiment [1] was more than 250 µM. Turning to `COc1ccc(-c2ccc(CN(C(=O)c3cc(C(=O)O)c(C(=O)O)cc3C(=O)O)[C@H]3CCCc4ccccc43)cc2)cc1`, the Kd in experiment [2] amounted to 789 µM. Moreover, in experiment [1], the EC50 was 14 µM.

For the molecule `O=C(O)c1cc(C(=O)O)c(C(=O)N(Cc2ccc3c(c2)Cc2ccccc2-3)[C@H]2CCCc3ccccc32)cc1C(=O)O`, the EC50 in experiment [1] was 26 µM. As for `O=C(O)c1cc(C(=O)O)c(C(=O)N(Cc2cccc(Oc3ccccc3)c2)[C@H]2CCCc3ccccc32)cc1C(=O)O` [A-317491], the EC50 in experiment [1] is 13 µM. Regarding `O=C(O)c1ccccc1C(=O)N(Cc1cccc(Oc2ccccc2)c1)CC12CC3CC(CC(C3)C1)C2`, in experiment [1], the EC50 was 7 µM.

On to `O=C(O)c1ccccc1C(=O)N(Cc1ccc(-c2ccccc2)cc1)[C@H]1CCCc2ccccc21`, for which the EC50 in experiment [1] was 16 µM. For the molecule `O=C(O)c1ccc(C(=O)N(Cc2cccc(Oc3ccccc3)c2)[C@H]2CCCc3ccccc32)cc1C(=O)O`, in experiment [1], the EC50 was 34 µM. Regarding `CC(=O)N[C@H](CCCCN)C(=O)N[C@H](CCCCN)C(=O)NCC(=O)N[C@H](C)C(=O)N[C@@H]1CSSC[C@H](C(=O)N[C@H](C)C(=O)N[C@H](C)C(N)=O)NC(=O)[C@@H](CC(C)C)NC(=O)[C@@H](Cc2c[nH]c3ccccc23)NC(=O)[C@@H](C)NC(=O)[C@@H](Cc2c[nH]c3ccccc23)NC(=O)[C@@H](CCC(=O)O)NC(=O)[C@@H](Cc2c[nH]c3ccccc23)NC(=O)CNC(=O)[C@@H](CC(C)C)NC(=O)[C@@H](CC(C)C)NC(=O)[C@@H](CCC(=O)O)NC1=O`, the EC50 in experiment [1] is 19 µM. With `O=C(O)c1cc(C(=O)O)cc(C(=O)N(Cc2cccc(Oc3ccccc3)c2)[C@H]2CCCc3ccccc32)c1`, the EC50 in experiment [1] was 41 µM. For the molecule `O=C(O)c1ccccc1C(=O)N(Cc1cccc(Oc2ccccc2)c1)Cc1ccccn1`, the Kd in experiment [2] was more than 5000 µM. `O=C(O)c1ccccc1C(=O)N(Cc1cccc(Oc2ccc(Cl)cc2)c1)[C@H]1CCCc2ccccc21`: the EC50 in experiment [1] is 3 µM.

With `O=C(O)c1cc(C(=O)O)c(C(=O)N(Cc2ccc(-c3ccccc3Cl)cc2)[C@H]2CCCc3ccccc32)cc1C(=O)O`, the EC50 in experiment [1] was 9 µM.

For the molecule `O=C(O)c1cc(C(=O)O)c(C(=O)N(Cc2ccc(-c3cc(Cl)cc(Cl)c3)cc2)[C@H]2CCCc3ccccc32)cc1C(=O)O`, in experiment [1], the EC50 is 4 µM.

Usually EC50 stands for the concentration that produces a half-maximal response. Broadly, the Kd is a measure of binding affinity in units of concentration. A lower Kd goes with a tighter complex.
